Entries after “also recorded” stand apart in the source; their conditions may differ.
Key:
Aβ40 [1] = target: T1, Aβ40 (Homo sapiens, UniProt P05067); assay: Mass spectrometry and IM-MS of Aβ40-ligand complexes; type: binding
T1 construct: Aβ40 and Aβ42 were purchased from AnaSpec (Fremont, Calif., USA); purchased AnaSpec
Method: The resulting solutions were allowed to react for 0, 2, 4, 8, and 24 hours at a temperature of 37° C. The samples were directly injected into the mass spectrometer at a flow rate of […]. ESI interface was operated in positive-ion mode; spray voltage was set at 4.5 kV with capillary temperature at 300° C. and capillary exit voltage at 101 V. Mass spectra were taken in the range of m/z 50 to 500.
All ion mobility-mass spectrometry (IM-MS) experiments were carried out on a Synapt G2 (Waters, Milford, Mass., USA). Samples were ionized using a nano-electrospray source operated in positive ion mode. MS instrumentation was operated at a backing pressure of 2.7 mbar and a sample cone voltage of 40 V. Data were analyzed using MassLynx 4.1 and DriftScope 2.0 (Waters, Milford, Mass., USA). Collision cross-section (CCS) measurements were calibrated externally using a database of known protein, and protein complex CCS values in helium. Lyophilized Aβ40 peptides (AnaSpec, Fremont, Calif., USA) were prepared to a stock concentration of 25 μM in 1 mM ammonium acetate (pH 7.0). […] After the reaction, all samples were lyophilized overnight prior to re-suspension of the samples in hexafluoro-2-propanol (HFIP, Sigma-Aldrich, St Louis, Mo., USA)([Aβ40]=50 μM) and sonicated under pulse settings for 5 minutes. The samples were diluted 50%, to a final Aβ40 concentration of 25 μM, using 1 mM ammonium acetate (0.5 mM final concentration) immediately prior to mass analysis.

Aβ40 [2] = target: T1, Aβ40; assay: Isothermal titration calorimetry (ITC); type: binding
Method: The ligand solution (10 μL) was titrated into the Aβ40 solution (1.4 mL) at 25° C. over 1 second with 25 injections with a constant interval of […] a 250 μL syringe rotating at 310 rpm. In a control experiment, the identical titrant solution was injected into the same buffer used with Aβ40 to measure the heat of dilution.
A reasonable heat of binding value was calculated by subtracting the heat of dilution value from the overall heat change. Titration data were analyzed with the MicroCal Origin (v. 7.0). The values of Ka (association constant) and […] each ligand upon binding to Aβ40 was determined from a proper fitting model. The binding curves were best fit to a sequential binding model with three binding sites. The values of −TΔS and ΔG were calculated from the Gibb's free energy relationship [(ΔG=ΔH−TΔS; ΔG=−RT ln(Ka)].

amyloid plaques = assay: Histopathological evaluation of amyloid deposition load in 5×FAD mice; type: in vivo, mouse; details: 1 mg/kg/day intraperitoneal, 30 days
Excerpt: (§1) 5×FAD mice were selected for this study since they develop early and severe phenotypes of AD and behavioral dysfunction.

Aβ40/Aβ42 = assay: Inhibition of formation of Aβ aggregation (gel electrophoresis/Western blot, TEM); type: biochemical
Method: Aβ40 or Aβ42 was dissolved in ammonium hydroxide (NH4OH, 1% v/v aq), and then, aliquoted, lyophilized overnight, and stored at a temperature of −80° C. For experiments described herein, a stock solution of Aβ was prepared by dissolving lyophilized peptide in 1% NH4OH (10 μL) and diluted with deionized distilled water (ddH2O).
The concentration of Aβ peptides in the solution was determined by measuring the absorbance of the solution at 280 nm (E=1450 M^−1 cm^−1 for Aβ40; and ε=1490 M^−1 cm^−1 for Aβ42).
(§2) The peptide stock solution was diluted to a final concentration of 25 μM in Chelex-treated buffered solution containing [4-(2-hydroxyethyl)-1-piperazine ethane sulfonic acid; […]; pH 6.6 for Cu(II) samples; pH 7.4 for metal-free and Zn(II) samples] (HEPES) and NaCl ([…]).
(§3) The samples from studies on the inhibition of formation of Aβ aggregation and the breakdown of Aβ aggregation were analyzed by gel electrophoresis with Western blotting using an anti-Aβ antibody (6E10).
Each sample (10 μL) was separated on a 10-20% Tris-tricine gel (Invitrogen, Grand island, NY, USA), and the protein samples obtained therefrom were transferred onto a nitrocellulose membrane which was blocked with bovine serum albumin (BSA, 3% w/v, Sigma-Aldrich, St. Louis, Mo., USA) in Tris-buffered saline containing 0.1% Tween-20 (TBS-T; 1.00 mM Tris base, pH 8.0, 1.50 mM NaCl) at room temperature for 2 hours. […]

Aβ40/Aβ42 aggregates [3] = assay: Breakdown of preformed Aβ aggregation (gel electrophoresis/Western blot, TEM); type: biochemical; details: Aβ preincubated 24 hours at 37° C., then DMPD 50 μM
Method: as §2, §3
(§4) Each sample (10 μL) was separated on a 10-20% Tris-tricine gel (Invitrogen, Grand island, NY, USA), and the protein samples obtained therefrom were transferred onto a nitrocellulose membrane which was blocked with bovine serum albumin (BSA, 3% w/v, Sigma-Aldrich, St. Louis, Mo., USA) in Tris-buffered saline containing 0.1% Tween-20 (TBS-T; 1.00 mM Tris base, pH 8.0, 1.50 mM NaCl) at room temperature for 2 hours.
(§5) Afterwards, the membranes were incubated with a primary antibody (6E10, Covance, Princeton, N.J., USA; 1:2000) in a solution of 2% w/v BSA (in TBS-T) overnight at 4° C. After washing with TBS-T (three times, each for 10 minutes), the horseradish peroxidase-conjugated goat antimouse secondary antibody (1:5000; Cayman Chemical Company, Ann Arbor, Mich., USA) in 2% w/v BSA (in TBS-T) was added for 1 hour at room temperature. […]

Aβ40/Aβ42 aggregates [4] = target: T2, Aβ40/Aβ42 aggregates (Homo sapiens, UniProt P05067); assay: as above; type: biochemical; details: regardless of presence or absence of metals
T2 construct: Aβ40 and Aβ42 were purchased from AnaSpec (Fremont, Calif., USA); purchased AnaSpec
T2 sequence (P05067 672-713): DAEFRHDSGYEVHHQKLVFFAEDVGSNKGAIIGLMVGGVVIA
Method: as §2, §3, §4, §5

[5] = test system: SK-N-BE(2)-M17 (M17) cell line; assay: Cell viability (MTT) of Aβ40- or metal-Aβ40-treated M17 cells; type: cell-based, human; details: Aβ:metal:ligand 10:10:20 μM, 24 hours, relative to the untreated cells
Method: The human neuroblastoma, i.e., SK-N-BE(2)-M17 (M17) cell line, was purchased from the American Type Culture Collection (ATCC, Manassas, Va., USA).
The cell line was maintained in media containing Minimum Essential Media (MEM; GIBCO, Life Technologies, Grand Island, N.Y., USA) and Ham's F12K Kaighn's Modification Media (F12K; GIBCO) at a ratio of 1:1, 10% (v/v) fetal bovine serum (FBS; Atlanta Biologicals, Flowery Branch, Ga., USA), 100 U/mL penicillin (GIBCO), and […] streptomycin (GIBCO). The cells were grown and maintained at a temperature of 37° C. in a humidified atmosphere with 5% CO2.
After completing the incubation at a temperature of 37° C. for 24 hours, 25 μL of [3-(4,5-dimethylthiazol-2-yl)-2,5-diphenyltetrazolium bromide; 5 mg/mL in phosphate buffered saline (PBS), pH7.4, GIBCO] (MTT) was added to each well, and then, the plates were incubated at a temperature of 37° C. for 4 hours.
Formazan produced by the cells was dissolved in a solution containing N,N-dimethylformamide (DMF, 50% v/v aq, pH 4.5) and sodium dodecyl sulfate (SDS, 20% w/v) overnight at room temperature. Subsequently, absorbance at 600 nm was measured on a microplate reader.

Aβ40 [6] = assay: Cerebral Aβ40 by ELISA in 5×FAD mice; type: in vivo, mouse; details: 1 mg/kg/day intraperitoneal, 30 days
Excerpt: as §1
(§6) Cerebral Aβ peptides were quantified by the enzyme-linked immunosorbent assay (ELISA).

[7] = target: T3, Cu(II)-loaded Aβ42 fibrils (Homo sapiens, UniProt P05067); assay: Cu K-edge X-ray absorption spectroscopy; details: DMPD 2 equivalents, 24 hours, anaerobic
T3 construct: Aβ40 and Aβ42 were purchased from AnaSpec (Fremont, Calif., USA); purchased AnaSpec
T3 sequence (P05067 672-713 limits assumed): as the sequence (P05067 672-713) above
Method: Aβ42 was monomerized according to the methods previously described (Biochemistry 44, 5478-5487, 2005; J. Am. Chem. Soc. 126, 13534-13538, 2004), and fibrils of Aβ42 were grown according to protocols known in the art (Biochemistry, 47, 5006-5016, 2008). Following monomerizatino of fibrillization, all samples were treated under an anaerobic atmosphere (N2) in a COY anaerobic chamber (COY Laboratory, Grass Lake, Mich., USA).
Aβ42 was dissolved in a mixture of 10 mM of N-ethylmorpholine buffer (pH 7.4) and glycerol (used as a deicing agent) that were mixed at a ratio of 4:1, and then, an equivalent amount of CuCl2 was added thereto. Aβ42 monomers were maintained at 5° C., and all procedures performed rapidly to avoid aggregation. […]
Following the reaction with DMPD, the solutions were injected into Lucite sample holders with Kapton tape windows, and then, quickly frozen in liquid nitrogen. All data were recorded on beamline X-3b at the National Synchrotron Light Source (Brookhaven National Laboratories, Upton, N.Y., USA). […]
Data were collected as fluorescence spectra using a Canberra 31 element Ge solid-state detector with a 3 micron Ni filter placed between the sample and detector, and calibrated against a simultaneously collected spectrum of Cu-foil (first inflection point 8980.3 eV). […]

[8] = Gross appearance and body weight of 5×FAD mice; type: in vivo, mouse; details: at conclusion of 30-day treatment, 1 mg/kg/day intraperitoneal
Excerpt: as §1

Aβ42 = assay: Cerebral Aβ42 by ELISA in 5×FAD mice; type: in vivo, mouse; details: 1 mg/kg/day intraperitoneal, 30 days
Excerpt: as §1, §6

5×FAD mice = assay: Morris water maze test in 5×FAD mice; type: in vivo, mouse
Method: Three hours after the final Morris water maze test, to confirm the performance of long-term memory retention, the probe trials, where the escape platform was removed, was carried out, and the mice located its previous position in the water for 60 seconds.

[9] = sequential binding model, three sites, 25° C., pH 7.4
[10] = probe trial 60 seconds, three hours after final test, vs vehicle-treated 5×FAD mice

T1 sequence (P05067 672-711 limits assumed): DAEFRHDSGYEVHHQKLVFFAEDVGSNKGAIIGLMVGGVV

Compound: O=C1C=CC(=O)C=C1 [BQ, benzoquinone]
- binding to Aβ40 (MS) (Aβ40 [1]; identical conditions as DMPD): binds to Aβ40
- mass added to Aβ40 on ligand treatment (mass shift) (Aβ40 [1]; ligand 50 μM, Aβ40 25 μM, 24 hours): 104.1±0.1 Da

Compound: CN(C)c1ccc(N)cc1 [DMPD, N,N-dimethyl-p-phenylenediamine]
- TΔS1 (Aβ40 [2]; calculated, ΔG=ΔH−TΔS): 6.81 ± 0.201 kcal/mol
- TΔS2 (Aβ40 [2]; calculated, ΔG=ΔH−TΔS): 7.48 ± 0.0884 kcal/mol
- TΔS3 (Aβ40 [2]; calculated, ΔG=ΔH−TΔS): -2.13 ± 0.155 kcal/mol
- ΔG1 (Aβ40 [2]; calculated, ΔG=−RT ln(Ka)): -7.43 ± 0.184 kcal/mol
- ΔG2 (Aβ40 [2]; calculated, ΔG=−RT ln(Ka)): -6.33 ± 0.0382 kcal/mol
- ΔH1 (Aβ40 [2]; sequential binding model, site 1): -0.629 ± 0.0837 kcal/mol
- ΔH2 (Aβ40 [2]; sequential binding model, site 2): 1.14 ± 0.801 kcal/mol
- ΔH3 (Aβ40 [2]; sequential binding model, site 3): -8.37 ± 1.52 kcal/mol
- Ka1 (Aβ40 [2]; [9]): 2.85 ± 0.88 × 10^5 M^−1
- Ka2 (Aβ40 [2]; [9]): 4.34 ± 2.88 × 10^4 M^−1
- Ka3 (Aβ40 [2]; [9]): 3.73 ± 2.22 × 10^4 M^−1
- reduction of load of APP/Aβ-immunoreactive 4G8-stained amyloid plaques (amyloid plaques): ca. 23%
- reduction of load of Congo red-stained amyloid plaques (amyloid plaques): ~20%
- effect on formation of metal-free or metal-induced Aβ aggregates (Aβ40/Aβ42; DMPD 50 μM, Aβ 25 μM, with or without CuCl2/ZnCl2 25 μM, 37° C., 24 hours, aerobic): inhibited the formation of Aβ aggregates
- modulation of Aβ aggregation under anaerobic condition (Aβ40/Aβ42; anaerobic condition): not observed
- transformation of preformed metal-free and metal-Aβ40/Aβ42 aggregates (Aβ40/Aβ42 aggregates [3]): significant effects on the transformation; also recorded: modified the formed Aβ aggregates to relatively smaller and less structured Aβ aggregates
- reactivity toward Aβ42 aggregates (Aβ40/Aβ42 aggregates [4]): less reactivity toward Aβ42 aggregates
- increase of viability [5]: 10-20%
- reduction of FA-soluble Aβ40 (Aβ40 [6]): ca. 50%
- reduction of SDS-soluble Aβ40 (Aβ40 [6]): ca. 68%
- decrease of total level of Aβ40 (PBS-, SDS- and FA-soluble) (Aβ40 [6]; vs vehicle-treated): ca. 65%
- effect on Cu(II) in Cu(II)-loaded Aβ42 fibrils [7]: complete reduction of Cu(II)
- gross appearance or body weight versus vehicle-treated mice [8]: no significant difference
- ion mobility arrival time of Aβ40 complex versus apo state (Aβ40 [1]; IM-MS, 4+ charge state): significantly decreased
- reduction of FA-soluble Aβ42 (Aβ42): ~32%
- reduction of SDS-soluble Aβ42 (Aβ42): ~67%
- decrease of total level of Aβ42 (PBS-, SDS- and FA-soluble) (Aβ42; vs vehicle-treated): ~47%
- spatial learning and memory capability (5×FAD mice; final five days of DMPD treatment, hidden platform): prominently improved
- time in the target quadrant (NW) in probe trial (5×FAD mice; [10]): significantly more time
- time to reach the platform area in probe trial (5×FAD mice; [10]): distinguishably less time

From patent US20160243059A1 (UNIST Academy-Industry Research Corporation, priority 2015, published 2016)
